From PMC6560211, “ApoAI-derived peptide increases glucose tolerance and prevents formation of atherosclerosis in mice” (Diabetologia, 2019)
No end group written: not given here.

Tested on: Apoe−/− mice
Test: Atherosclerosis model, western diet
Assay type: in vivo, mouse
Details: female Apoe−/− mice, i.p. three times a week for 6 weeks, RG54 12 mg/kg, ApoA-I 14 mg/kg, liraglutide 0.3 mg/kg, Oil Red O, n=9, vs NaCl
Source text: Female Apoe^−/− mice (002052, Jackson Laboratory, Bar Harbor, ME, USA) at 12 weeks of age were acclimatised for 1 week, then changed to the RD western diet (D12079B) and injected i.p. three times per week for 6 weeks with treatments as indicated in ESM Fig. 1. At the end of the experimental period, the mice were euthanised and whole aortas were collected, fixed and stained for analysis. See ESM Methods for more details.
Apoe^−/− mice, which develop aortic atherosclerosis, were used to test if RG54 reduces the formation of atherosclerotic plaques in vivo. Apoe^−/− mice were obtained at 12 weeks of age and acclimatised for 1 week, after which baseline body weights, dual-energy x-ray absorptiometry body scans and serum samples were collected. […] Serum lipid profiles were measured at the start and end of the experimental period (ESM Fig. 5).
Fig. 2 Effect of ApoA-I or RG54 treatment on early, low-burden atherosclerotic lesion development in Apoe^−/− mice. […] (a) Body weight was measured weekly (n=9). […] (d–f) After euthanasia the aortic arch and abdominal aorta were removed, fixed and prepared en face, then atherosclerotic plaques were stained using Oil Red O. Representative aorta images (d) shown as raw images and images analysed for Oil Red O stained areas. […] Stained areas were then quantified to give the total plaque area (e) and total plaques per aorta (f) (n=9). […]

## Ac-AEYHAKATEHLSTLSEKAKPALEDLRQGLLPVLESFKVSFLSALEEYTKKLNTQ [RG54]
  number of plaques per mouse: significantly reduced
  total plaque area (percentage of the aortic surface): significantly reduced
